Reference: patent publication US8013137B2, “Modified enteropeptidase protein” (National University Corporation Hokkaido University, priority 2006, dated 2011)
Where two headings read alike, the source gives them in different places. Non-standard residues stand in square brackets, D forms with d. Residues, ends and D or L forms follow the SMILES beside them. *: point of attachment. Sta = CC(C)C[C@H](N)[C@@H](O)CC(=O)O; Isovaleryl = CC(C)CC(=O)*

What was measured:
[1] = tested on: medaka EP-1 protease; assay: Inhibitor assay, enzyme activity measured using GD4K-βNA as a substrate; type: biochemical, medaka (Oryzias latipes)
[2] = tested on: medaka EP-2 protease; assay: as above; type: biochemical, medaka (Oryzias latipes)
[3] = target: T1, medaka EP-1 enteropeptidase serine protease domain, wild type, SEQ ID NO: 2 (Oryzias latipes, UniProt A4UWM5); assay: Inhibitor assay, EP-1 protease activity on GD4K-βNA; type: biochemical, Japanese Medaka (Oryzias latipes); conditions: pH 7.4
T1 sequence (A4UWM5 795-1036): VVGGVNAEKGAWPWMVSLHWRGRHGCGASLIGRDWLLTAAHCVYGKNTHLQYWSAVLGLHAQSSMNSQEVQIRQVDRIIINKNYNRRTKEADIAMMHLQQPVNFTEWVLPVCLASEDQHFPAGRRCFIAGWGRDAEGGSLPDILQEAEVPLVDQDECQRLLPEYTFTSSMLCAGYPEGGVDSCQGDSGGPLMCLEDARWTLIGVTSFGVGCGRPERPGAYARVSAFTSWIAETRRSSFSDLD

[4] = target: medaka EP-2 enteropeptidase serine protease domain, wild type (EP-2, SEQ ID NO: 72) (Oryzias latipes, UniProt A4UWM6); assay: Inhibitor assay, EP-2 protease activity on GD4K-βNA; type: biochemical, Japanese Medaka (Oryzias latipes); conditions: pH 7.4
[5] = inhibitor 1.0 mM, GD4K-βNA substrate, 10 min preincubation
[6] = 0.2 mM inhibitor, GD4K-βNA substrate, 10 min preincubation
[7] = inhibitor 0.1 mM, GD4K-βNA substrate, 10 min preincubation
[8] = inhibitor 0.01 mg/ml, GD4K-βNA substrate, 10 min preincubation

Chain of medaka EP-2 enteropeptidase serine protease domain, wild type (EP-2, SEQ ID NO: 72) (A4UWM6 802-1043): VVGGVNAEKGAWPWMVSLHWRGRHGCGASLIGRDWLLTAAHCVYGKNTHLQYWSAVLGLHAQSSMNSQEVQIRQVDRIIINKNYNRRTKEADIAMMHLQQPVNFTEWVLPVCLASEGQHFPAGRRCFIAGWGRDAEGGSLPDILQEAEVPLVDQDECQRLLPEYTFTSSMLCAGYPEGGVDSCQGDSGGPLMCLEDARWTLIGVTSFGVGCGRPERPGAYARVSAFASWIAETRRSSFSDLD

Question: Which “Inhibition (%) EP-1” value [1, 5] does the source give for `N=C(N)c1ccccc1` [Benzamidine] here?
Answer: 79%

Question: And the “Inhibition (%) EP-2” value [2, 5]?
Answer: 78%

Question: What does the source list for `CC(C)C[C@H](NC(=O)[C@@H](NC(=O)N[C@@H](Cc1ccccc1)C(=O)O)[C@@H]1CCN=C(N)N1)C(=O)N[C@H](C=O)Cc1ccccc1` [Chymostatin]?
Answer: Inhibition (%) EP-1 [1]: 0%; Inhibition (%) EP-2 [2]: 0%

Question: Which inhibition at 200 µM [3, 6] does the source give for `CC(C)C[C@H](NC(=O)[C@H]1O[C@@H]1C(=O)O)C(=O)NCCCCN=C(N)N` [E-64] here?
Answer: 0%

Question: What about the inhibition at 200 µM [4, 6] of the same compound?
Answer: 0%

Question: Which inhibition at 5000 µM [3] does the source give for `O=C(O)CN(CCN(CC(=O)O)CC(=O)O)CC(=O)O` [EDTA] here?
Answer: 5%

Question: What about the inhibition at 5000 µM [4] of the same compound?
Answer: 10%

Question: Which “Inhibition (%) EP-1” value [1] does the source give for `CC(=O)N[C@@H](CC(C)C)C(=O)N[C@@H](CC(C)C)C(=O)N[C@H](C=O)CCCNC(=N)N` [Leupeptin] here?
Answer: 43%

Question: And the “Inhibition (%) EP-2” value [2]?
Answer: 47%

Question: Which results are given for `CC(C)CC(=O)N[C@H](C(=O)N[C@H](C(=O)N[C@@H](CC(C)C)[C@@H](O)CC(=O)N[C@@H](C)C(=O)N[C@@H](CC(C)C)[C@@H](O)CC(=O)O)C(C)C)C(C)C` [Pepstatin] (Isovaleryl-VV[Sta]A[Sta]-OH)?
Answer: Inhibition (%) EP-1 [1, 7]: 0%; Inhibition (%) EP-2 [2, 7]: 3%

Question: For Aprotinin, which “Inhibition (%) EP-1” value [1, 8] is on record?
Answer: 0%

Question: What about the “Inhibition (%) EP-2” value [2, 8] of the same compound?
Answer: 5%
